Measured values as given in PubChem BioAssay AID1963433 (Molecular Pharmacology Branch, DTP, NCI, 2024).
Blank lines part the entries; values can stand above or below the molecule they belong to.

System: 772245-204-R-J1-PDC complex spheroid growth
Experiment: Anticancer human tumor 772245-204-R-J1-PDC patient-derived rhabdomyosarcoma cell line growth inhibition [Asc]
Settings: for IC50: curve of first compound; for viability, T/C: stronger effect = lower value
In short: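 Tumor cells were grown as multicellular spheroids with stromal HUVEC and mesenchymal stem cells and treated singly or in combination. Concentrations fell in half-log steps from the clinical Cmax, or from 10 microM where none was known.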
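Further: compound exposure lasted seven days.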
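Wherever viability, T/C is given: 100% = DMSO vehicle control viability.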

IC50 (second compound 0.1 µM): > 1 µM
IC50 (second compound 0.316 µM): 0.072 µM
IC50 (second compound 1 µM): < 0.00316 µM
IC50 (second compound 3.16 µM): < 0.00316 µM
IC50 (second compound 10 µM): < 0.00316 µM
SMILES: CNC(C)C(=O)NC1CN(S(=O)(=O)c2cccc(S(=O)(=O)N3CCC4CCC(C(=O)NC(c5ccccc5)c5ccccc5)N4C(=O)C(NC(=O)C(C)NC)C3)c2)CCC2CCC(C(=O)NC(c3ccccc3)c3ccccc3)N2C1=O (configuration not stated) + Cc1c(S(C)(=O)=O)c(-c2cc(F)cc(N3CCN(c4ccc(NS(=O)(=O)c5ccc(NC(CCN6CCC(C(=O)OCCCP(=O)(O)O)CC6)CSc6ccccc6)c(S(=O)(=O)C(F)(F)F)c5)cc4)CC3)c2)c(-c2ccc(Cl)cc2)n1C(C)C
viability, T/C (second compound 0.1 µM, first compound 0.00316 µM): 79.9%
viability, T/C (second compound 0.1 µM, first compound 0.01 µM): 66.3%
viability, T/C (second compound 0.1 µM, first compound 0.0316 µM): 72.7%
viability, T/C (second compound 0.1 µM, first compound 0.1 µM): 64.8%
viability, T/C (second compound 0.1 µM, first compound 0.316 µM): 63.5%
viability, T/C (second compound 0.1 µM, first compound 1 µM): 63%
viability, T/C (second compound 0.316 µM, first compound 0.00316 µM): 56.1%
viability, T/C (second compound 0.316 µM, first compound 0.01 µM): 56.5%
viability, T/C (second compound 0.316 µM, first compound 0.0316 µM): 55%
viability, T/C (second compound 0.316 µM, first compound 0.1 µM): 45.8%
viability, T/C (second compound 0.316 µM, first compound 0.316 µM): 45.2%
viability, T/C (second compound 0.316 µM, first compound 1 µM): 44.5%
viability, T/C (second compound 1 µM, first compound 0.00316 µM): 43%
viability, T/C (second compound 1 µM, first compound 0.01 µM): 53.5%
viability, T/C (second compound 1 µM, first compound 0.0316 µM): 37.9%
viability, T/C (second compound 1 µM, first compound 0.1 µM): 37.1%
viability, T/C (second compound 1 µM, first compound 0.316 µM): 35.2%
viability, T/C (second compound 1 µM, first compound 1 µM): 39.1%
viability, T/C (second compound 3.16 µM, first compound 0.00316 µM): 31.4%
viability, T/C (second compound 3.16 µM, first compound 0.01 µM): 32.8%
viability, T/C (second compound 3.16 µM, first compound 0.0316 µM): 31.6%
viability, T/C (second compound 3.16 µM, first compound 0.1 µM): 29.5%
viability, T/C (second compound 3.16 µM, first compound 0.316 µM): 29.8%
viability, T/C (second compound 3.16 µM, first compound 1 µM): 25%
viability, T/C (second compound 10 µM, first compound 0.00316 µM): 32.2%
viability, T/C (second compound 10 µM, first compound 0.01 µM): 41.5%
viability, T/C (second compound 10 µM, first compound 0.0316 µM): 31.4%
viability, T/C (second compound 10 µM, first compound 0.1 µM): 25.2%
viability, T/C (second compound 10 µM, first compound 0.316 µM): 23.7%
viability, T/C (second compound 10 µM, first compound 1 µM): 22.3%

IC50 (second compound 0.00316 µM): > 3 µM
IC50 (second compound 0.01 µM): > 3 µM
IC50 (second compound 0.0316 µM): > 3 µM
IC50 (second compound 0.1 µM): > 3 µM
IC50 (second compound 0.316 µM): > 3 µM
IC50 (second compound 1 µM): > 3 µM
SMILES: Cc1nc(N2CCC3(CC2)COC(C)C3N)c(CO)nc1Sc1ccnc(N)c1Cl (configuration not stated) + CNC(C)C(=O)NC1CN(S(=O)(=O)c2cccc(S(=O)(=O)N3CCC4CCC(C(=O)NC(c5ccccc5)c5ccccc5)N4C(=O)C(NC(=O)C(C)NC)C3)c2)CCC2CCC(C(=O)NC(c3ccccc3)c3ccccc3)N2C1=O
viability, T/C (second compound 0.00316 µM, first compound 0.00949 µM): 101%
viability, T/C (second compound 0.00316 µM, first compound 0.03 µM): 105%
viability, T/C (second compound 0.00316 µM, first compound 0.0949 µM): 109%
viability, T/C (second compound 0.00316 µM, first compound 0.3 µM): 105%
viability, T/C (second compound 0.00316 µM, first compound 0.949 µM): 115%
viability, T/C (second compound 0.00316 µM, first compound 3 µM): 92.9%
viability, T/C (second compound 0.01 µM, first compound 0.00949 µM): 108%
viability, T/C (second compound 0.01 µM, first compound 0.03 µM): 93.4%
viability, T/C (second compound 0.01 µM, first compound 0.0949 µM): 107%
viability, T/C (second compound 0.01 µM, first compound 0.3 µM): 117%
viability, T/C (second compound 0.01 µM, first compound 0.949 µM): 102%
viability, T/C (second compound 0.01 µM, first compound 3 µM): 75.4%
viability, T/C (second compound 0.0316 µM, first compound 0.00949 µM): 104%
viability, T/C (second compound 0.0316 µM, first compound 0.03 µM): 99.3%
viability, T/C (second compound 0.0316 µM, first compound 0.0949 µM): 105%
viability, T/C (second compound 0.0316 µM, first compound 0.3 µM): 101%
viability, T/C (second compound 0.0316 µM, first compound 0.949 µM): 88.3%
viability, T/C (second compound 0.0316 µM, first compound 3 µM): 78.6%
viability, T/C (second compound 0.1 µM, first compound 0.00949 µM): 105%
viability, T/C (second compound 0.1 µM, first compound 0.03 µM): 99.1%
viability, T/C (second compound 0.1 µM, first compound 0.0949 µM): 88.4%
viability, T/C (second compound 0.1 µM, first compound 0.3 µM): 98.6%
viability, T/C (second compound 0.1 µM, first compound 0.949 µM): 99.6%
viability, T/C (second compound 0.1 µM, first compound 3 µM): 75.9%
viability, T/C (second compound 0.316 µM, first compound 0.00949 µM): 101%
viability, T/C (second compound 0.316 µM, first compound 0.03 µM): 90.6%
viability, T/C (second compound 0.316 µM, first compound 0.0949 µM): 91.4%
viability, T/C (second compound 0.316 µM, first compound 0.3 µM): 99.1%
viability, T/C (second compound 0.316 µM, first compound 0.949 µM): 86.8%
viability, T/C (second compound 0.316 µM, first compound 3 µM): 74.7%
viability, T/C (second compound 1 µM, first compound 0.00949 µM): 95.8%
viability, T/C (second compound 1 µM, first compound 0.03 µM): 89%
viability, T/C (second compound 1 µM, first compound 0.0949 µM): 104%
viability, T/C (second compound 1 µM, first compound 0.3 µM): 90.6%
viability, T/C (second compound 1 µM, first compound 0.949 µM): 93.6%
viability, T/C (second compound 1 µM, first compound 3 µM): 66.9%
